Holding throughout (assay): cAMP activity assay in assay medium (assay 1)
What all share (format): cell-based
What all share (settings): Table 4

One assay has as its target T1, Human GlucR (Homo sapiens, UniProt P47871).
T1 construct: expressed in transfected cells
The source says: (§1) Biological Activity of Peptides in Cell-Based cAMP Activity Assay (Assay 1):
(§2) All sample dilutions were made in duplicate.

The next assay deals with T2, Human GIPr (Homo sapiens, UniProt P48546).
T2 construct: expressed in transfected cells
T2 sequence (P48546 22-466): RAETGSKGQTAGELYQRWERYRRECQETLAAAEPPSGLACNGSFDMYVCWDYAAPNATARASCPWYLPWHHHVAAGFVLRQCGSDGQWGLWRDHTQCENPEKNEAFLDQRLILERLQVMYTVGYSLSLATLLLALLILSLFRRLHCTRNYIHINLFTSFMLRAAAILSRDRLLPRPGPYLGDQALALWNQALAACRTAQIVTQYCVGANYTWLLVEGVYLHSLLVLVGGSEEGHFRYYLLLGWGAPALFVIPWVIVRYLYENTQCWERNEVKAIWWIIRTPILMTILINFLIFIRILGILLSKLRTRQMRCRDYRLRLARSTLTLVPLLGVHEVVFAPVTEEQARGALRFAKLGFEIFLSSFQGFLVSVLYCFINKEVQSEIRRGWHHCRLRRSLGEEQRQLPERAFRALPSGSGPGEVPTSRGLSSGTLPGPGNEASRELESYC
Source text: as §1, §2

Another assay addresses Human GLP1R (Homo sapiens, UniProt P43220). More on the design: expressed in transfected cells.
Source text: as §1, §2

Where [1] appears, read: assay medium, read-out: hGlucR EC50.
Where [2] appears, read: assay medium, read-out: hGIPR EC50.
Setting [3] is: assay medium, read-out: hGLP1R EC50.

Like-named read-outs stand apart in the source and are kept apart here. Numbered stars: 1 amine (or outer) side, 2 acyl side, 3 side chain; on linkers, the order of the positions; unused ones are H or OH. Side chains are listed from the residue outwards. Peptide text beside a SMILES is read from it. * marks the point of attachment. γGlu = O=C(O)[C@H](CCC(=O)[*:2])N[*:1]; Palmitoyl = CCCCCCCCCCCCCCCC(=O)*; Ahx = NCCCCCC(=O)O

The term EC50 denotes the concentration at which the effect is half-maximal.

T1 sequence (P47871 26-477): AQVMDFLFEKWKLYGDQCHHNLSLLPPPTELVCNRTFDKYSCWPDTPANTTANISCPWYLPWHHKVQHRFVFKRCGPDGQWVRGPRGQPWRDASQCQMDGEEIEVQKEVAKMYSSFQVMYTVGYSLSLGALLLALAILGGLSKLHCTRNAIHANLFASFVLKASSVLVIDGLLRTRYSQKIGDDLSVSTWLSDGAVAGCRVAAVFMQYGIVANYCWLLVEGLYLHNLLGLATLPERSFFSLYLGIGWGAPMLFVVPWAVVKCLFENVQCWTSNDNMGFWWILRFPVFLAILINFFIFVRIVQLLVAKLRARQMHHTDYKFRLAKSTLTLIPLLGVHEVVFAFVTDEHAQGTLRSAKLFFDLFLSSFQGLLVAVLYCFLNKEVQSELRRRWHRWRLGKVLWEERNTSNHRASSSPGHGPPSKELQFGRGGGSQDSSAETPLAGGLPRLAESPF
Chain of Human GLP1R (P43220 24-463): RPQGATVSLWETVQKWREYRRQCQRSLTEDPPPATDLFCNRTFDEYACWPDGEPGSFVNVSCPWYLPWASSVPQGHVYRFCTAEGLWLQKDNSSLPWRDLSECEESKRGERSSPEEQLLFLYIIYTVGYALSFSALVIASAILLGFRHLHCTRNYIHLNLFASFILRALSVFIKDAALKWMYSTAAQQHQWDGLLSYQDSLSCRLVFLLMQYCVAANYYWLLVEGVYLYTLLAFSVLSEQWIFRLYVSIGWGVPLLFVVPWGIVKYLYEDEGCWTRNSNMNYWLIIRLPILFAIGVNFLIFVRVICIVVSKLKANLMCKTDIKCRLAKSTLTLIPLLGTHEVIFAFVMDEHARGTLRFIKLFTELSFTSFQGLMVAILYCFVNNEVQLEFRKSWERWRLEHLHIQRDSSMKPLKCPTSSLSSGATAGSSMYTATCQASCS

As to `CCCCCCCCCCCCCCCC(=O)NCCCCCC(=O)NCCCC[C@H](NC(=O)[C@H](CO)NC(=O)[C@H](CC(=O)O)NC(=O)[C@H](CC(C)C)NC(=O)[C@H](Cc1ccc(O)cc1)NC(=O)[C@H](CCC(=O)O)NC(=O)[C@H](CO)NC(=O)[C@H](Cc1ccc(O)cc1)NC(=O)[C@H](CC(=O)O)NC(=O)[C@H](CO)NC(=O)[C@@H](NC(=O)[C@H](Cc1ccccc1)NC(=O)[C@@H](NC(=O)CNC(=O)[C@H](CCC(=O)O)NC(=O)CNC(=O)[C@@H](N)Cc1c[nH]cn1)[C@@H](C)O)[C@@H](C)O)C(=O)N[C@@H](CCCNC(=N)N)C(=O)N[C@@H](C)C(=O)N[C@@H](C)C(=O)N[C@@H](CC(=O)O)C(=O)N[C@@H](Cc1ccccc1)C(=O)N[C@H](C(=O)N[C@@H](C)C(=O)N[C@@H](Cc1c[nH]c2ccccc12)C(=O)N[C@@H](CC(C)C)C(=O)N[C@@H](CCC(=O)O)C(=O)N[C@@H](CCCNC(=N)N)C(=O)NCC(=O)NCC(N)=O)C(C)C` [g725] (H-HGEGTFTSDYSEYLDSK([Ahx-Palmitoyl])RAADFVAWLERGG-NH2; N-terminus assumed), the figures for the EC50 on Human GlucR (setting [1]), at Human GIPr (setting [2]) and at Human GLP1R (setting [3]) were 59.9 nM, 1480 nM and 0.0252 nM, respectively.

Consider `CCCCCCCCCCCCCCCC(=O)NCCCCCC(=O)NCCCC[C@H](NC(=O)[C@H](CO)NC(=O)[C@H](CC(=O)O)NC(=O)[C@H](CC(C)C)NC(=O)[C@H](Cc1ccc(O)cc1)NC(=O)[C@H](CCC(=O)O)NC(=O)[C@H](CO)NC(=O)[C@H](Cc1ccc(O)cc1)NC(=O)[C@H](CC(=O)O)NC(=O)[C@H](CO)NC(=O)[C@@H](NC(=O)[C@H](Cc1ccccc1)NC(=O)[C@@H](NC(=O)CNC(=O)[C@H](CCC(=O)O)NC(=O)CNC(=O)[C@@H](N)Cc1c[nH]cn1)[C@@H](C)O)[C@@H](C)O)C(=O)N[C@@H](CCCNC(=N)N)C(=O)N[C@@H](C)C(=O)N[C@@H](CCCNC(=N)N)C(=O)N[C@@H](CC(=O)O)C(=O)N[C@@H](Cc1ccccc1)C(=O)N[C@H](C(=O)N[C@@H](CCC(=O)O)C(=O)N[C@@H](Cc1c[nH]c2ccccc12)C(=O)N[C@@H](CC(C)C)C(=O)N[C@@H](CCC(=O)O)C(=O)N[C@@H](CCCNC(=N)N)C(=O)NCC(=O)NCC(N)=O)C(C)C` [g726] (H-HGEGTFTSDYSEYLDSK([Ahx-Palmitoyl])RARDFVEWLERGG-NH2; N-terminus assumed), for which the EC50 at Human GlucR (setting [1]) worked out at 13.1 nM; at Human GIPr (setting [2]) it was 215 nM; at Human GLP1R (setting [3]), 0.00791 nM.

With `CCCCCCCCCCCCCCCC(=O)NCCCCCC(=O)NCCCC[C@H](NC(=O)[C@H](CO)NC(=O)[C@H](CC(=O)O)NC(=O)[C@H](CC(C)C)NC(=O)[C@H](Cc1ccc(O)cc1)NC(=O)[C@H](CCC(=O)O)NC(=O)[C@H](CO)NC(=O)[C@H](Cc1ccc(O)cc1)NC(=O)[C@H](CC(=O)O)NC(=O)[C@H](CO)NC(=O)[C@@H](NC(=O)[C@H](Cc1ccccc1)NC(=O)[C@@H](NC(=O)CNC(=O)[C@H](CCC(N)=O)NC(=O)CNC(=O)[C@@H](N)Cc1c[nH]cn1)[C@@H](C)O)[C@@H](C)O)C(=O)N[C@@H](CCCNC(=N)N)C(=O)N[C@@H](C)C(=O)N[C@@H](CCCNC(=N)N)C(=O)N[C@@H](CC(=O)O)C(=O)N[C@@H](Cc1ccccc1)C(=O)N[C@H](C(=O)N[C@@H](C)C(=O)N[C@@H](Cc1c[nH]c2ccccc12)C(=O)N[C@@H](CC(C)C)C(=O)N[C@@H](CCC(=O)O)C(=O)N[C@@H](CCCNC(=N)N)C(=O)NCC(=O)NCC(=O)O)C(C)C` [g727] (H-HGQGTFTSDYSEYLDSK([Ahx-Palmitoyl])RARDFVAWLERGG-OH; N-terminus assumed), the EC50 worked out at 0.218 nM on Human GlucR (setting [1]), 177 nM on Human GIPr (setting [2]) and 0.0263 nM on Human GLP1R (setting [3]).

For `CCCCCCCCCCCCCCCC(=O)N[C@@H](CCC(=O)NCCCC[C@H](NC(=O)[C@H](CO)NC(=O)[C@H](Cc1ccc(O)cc1)NC(=O)[C@H](CC(=O)O)NC(=O)[C@H](CO)NC(=O)[C@@H](NC(=O)[C@H](Cc1ccccc1)NC(=O)[C@@H](NC(=O)CNC(=O)[C@H](CCC(N)=O)NC(=O)[C@H](CO)NC(=O)[C@@H](N)Cc1c[nH]cn1)[C@@H](C)O)[C@@H](C)O)C(=O)N[C@@H](Cc1ccc(O)cc1)C(=O)N[C@@H](CC(C)C)C(=O)N[C@@H](CC(=O)O)C(=O)N[C@@H](CO)C(=O)N[C@@H](CCC(=O)O)C(=O)N[C@@H](CCCNC(=N)N)C(=O)N[C@@H](C)C(=O)N[C@@H](CCCNC(=N)N)C(=O)N[C@@H](CC(=O)O)C(=O)N[C@@H](Cc1ccccc1)C(=O)N[C@H](C(=O)N[C@@H](C)C(=O)N[C@@H](Cc1c[nH]c2ccccc12)C(=O)N[C@@H](CC(C)C)C(=O)N[C@H](C(=O)N[C@@H](C)C(=O)NCC(=O)NCC(N)=O)C(C)C)C(C)C)C(=O)O` [g728] (H-HSQGTFTSDYSK([γGlu-Palmitoyl])YLDSERARDFVAWLVAGG-NH2; N-terminus assumed), the EC50 was determined as 2.44 nM on Human GlucR (setting [1]), 395 nM at Human GIPr (setting [2]) and 0.169 nM on Human GLP1R (setting [3]).

With `CCCCCCCCCCCCCCCC(=O)N[C@@H](CCC(=O)NCCCC[C@H](NC(=O)[C@H](CCCCN)NC(=O)[C@H](CO)NC(=O)[C@H](Cc1ccc(O)cc1)NC(=O)[C@H](CC(=O)O)NC(=O)[C@H](CO)NC(=O)[C@@H](NC(=O)[C@H](Cc1ccccc1)NC(=O)[C@@H](NC(=O)CNC(=O)[C@H](CCC(N)=O)NC(=O)[C@H](CO)NC(=O)[C@@H](N)Cc1c[nH]cn1)[C@@H](C)O)[C@@H](C)O)C(=O)N[C@@H](CC(C)C)C(=O)N[C@@H](CC(=O)O)C(=O)N[C@@H](CO)C(=O)N[C@@H](CCC(=O)O)C(=O)N[C@@H](CCCNC(=N)N)C(=O)N[C@@H](C)C(=O)N[C@@H](CCC(N)=O)C(=O)N[C@@H](CC(=O)O)C(=O)N[C@@H](Cc1ccccc1)C(=O)N[C@H](C(=O)N[C@@H](CCC(N)=O)C(=O)N[C@@H](Cc1c[nH]c2ccccc12)C(=O)N[C@@H](CC(C)C)C(=O)N[C@H](C(=O)N[C@@H](C)C(=O)NCC(=O)NCC(N)=O)C(C)C)C(C)C)C(=O)O` [g729] (H-HSQGTFTSDYSKK([γGlu-Palmitoyl])LDSERAQDFVQWLVAGG-NH2), the EC50 on Human GlucR (hGlucR EC50, assay medium) was determined as 0.0319 nM; at Human GIPr (hGIPR EC50, assay medium), 209 nM; on Human GLP1R (hGLP1R EC50, assay medium), 0.0729 nM.

Regarding `CCCCCCCCCCCCCCCC(=O)N[C@@H](CCC(=O)NCCCC[C@H](NC(=O)[C@H](Cc1ccc(O)cc1)NC(=O)[C@H](CCC(=O)O)NC(=O)[C@H](CO)NC(=O)[C@H](Cc1ccc(O)cc1)NC(=O)[C@H](CC(=O)O)NC(=O)[C@H](CO)NC(=O)[C@@H](NC(=O)[C@H](Cc1ccccc1)NC(=O)[C@@H](NC(=O)CNC(=O)[C@H](CCC(N)=O)NC(=O)[C@H](CO)NC(=O)[C@@H](N)Cc1c[nH]cn1)[C@@H](C)O)[C@@H](C)O)C(=O)N[C@@H](CC(=O)O)C(=O)N[C@@H](CO)C(=O)N[C@@H](CCCNC(=N)N)C(=O)N[C@@H](CCCNC(=N)N)C(=O)N[C@@H](C)C(=O)N[C@@H](CCC(N)=O)C(=O)N[C@@H](CC(=O)O)C(=O)N[C@@H](Cc1ccccc1)C(=O)N[C@H](C(=O)N[C@@H](CCC(N)=O)C(=O)N[C@@H](Cc1c[nH]c2ccccc12)C(=O)N[C@@H](CC(C)C)C(=O)N[C@H](C(=O)N[C@@H](C)C(=O)NCC(=O)NCC(N)=O)C(C)C)C(C)C)C(=O)O` [g731] (H-HSQGTFTSDYSEYK([γGlu-Palmitoyl])DSRRAQDFVQWLVAGG-NH2; N-terminus assumed), the EC50 worked out at 0.0277 nM at Human GlucR (setting [1]), 40.7 nM on Human GIPr (setting [2]) and 0.0422 nM at Human GLP1R (setting [3]).

Regarding `CCCCCCCCCCCCCCCC(=O)N[C@@H](CCC(=O)NCCCC[C@H](NC(=O)[C@H](Cc1ccc(O)cc1)NC(=O)[C@H](CCCCN)NC(=O)[C@H](CO)NC(=O)[C@H](Cc1ccc(O)cc1)NC(=O)[C@H](CC(=O)O)NC(=O)[C@H](CO)NC(=O)[C@@H](NC(=O)[C@H](Cc1ccccc1)NC(=O)[C@@H](NC(=O)CNC(=O)[C@H](CCC(N)=O)NC(=O)CNC(=O)[C@@H](N)Cc1c[nH]cn1)[C@@H](C)O)[C@@H](C)O)C(=O)N[C@@H](CC(=O)O)C(=O)N[C@@H](CO)C(=O)N[C@@H](CCC(=O)O)C(=O)N[C@@H](CCCNC(=N)N)C(=O)N[C@@H](C)C(=O)N[C@@H](CCCNC(=N)N)C(=O)N[C@@H](CC(=O)O)C(=O)N[C@@H](Cc1ccccc1)C(=O)N[C@H](C(=O)N[C@@H](C)C(=O)N[C@@H](Cc1c[nH]c2ccccc12)C(=O)N[C@@H](CC(C)C)C(=O)N[C@H](C(=O)N[C@@H](C)C(=O)NCC(=O)NCC(N)=O)C(C)C)C(C)C)C(=O)O` [g732] (H-HGQGTFTSDYSKYK([γGlu-Palmitoyl])DSERARDFVAWLVAGG-NH2; N-terminus assumed), the EC50 on Human GlucR (setting [1]) came to 0.0396 nM; on Human GIPr (setting [2]), 29.4 nM; on Human GLP1R (setting [3]), 0.0232 nM.

These data come from US20200354426A1 (MEDIMMUNE LIMITED, priority 2016, published 2020).
